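In this assay, cells in 96-well plates receive the compound at five concentrations for 48 hours. Endpoints are linearly interpolated between the surrounding concentrations. Abbreviation: GI50, concentration required for 50% inhibition of growth. TGI: concentration producing complete growth inhibition.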
Legend:
Test in all cases: DTP human tumour cell line panel, 48 h
A549 NSCLC = system: A549 NSCLC
HL-60(TB) leukemia = system: HL-60(TB) leukemia
SR leukemia = system: SR leukemia
OVCAR-5 ovarian = system: OVCAR-5 ovarian
NCI-H522 lung = system: NCI-H522 lung
SW-620 colon = system: SW-620 colon
LOX IMVI melanoma = system: LOX IMVI melanoma
MOLT-4 leukemia = system: MOLT-4 leukemia
NCI-H226 lung = system: NCI-H226 lung
RXF 393 renal = system: RXF 393 renal
UACC-62 melanoma = system: UACC-62 melanoma
NCI/ADR-RES ovarian = system: NCI/ADR-RES ovarian
K-562 leukemia = system: K-562 leukemia
PC-3 prostate = system: PC-3 prostate
HS 578T breast = system: HS 578T breast
SF-539 CNS = system: SF-539 CNS
COLO 205 colon = system: COLO 205 colon
UO-31 renal = system: UO-31 renal
RPMI-8226 leukemia = system: RPMI-8226 leukemia
MALME-3M melanoma = system: MALME-3M melanoma
TK-10 renal = system: TK-10 renal
T-47D breast = system: T-47D breast
SK-MEL-5 melanoma = system: SK-MEL-5 melanoma
HCT-15 colon = system: HCT-15 colon
SK-OV-3 ovarian = system: SK-OV-3 ovarian
SK-MEL-2 melanoma = system: SK-MEL-2 melanoma
U251 CNS = system: U251 CNS
SN12C renal = system: SN12C renal
KM12 colon = system: KM12 colon
OVCAR-3 ovarian = system: OVCAR-3 ovarian
HOP-62 NSCLC = system: HOP-62 NSCLC
HT29 colon = system: HT29 colon
A498 renal = system: A498 renal
MDA-MB-231 breast = system: MDA-MB-231 breast
M14 melanoma = system: M14 melanoma
SF-295 CNS = system: SF-295 CNS
HOP-92 NSCLC = system: HOP-92 NSCLC
IGROV1 ovarian = system: IGROV1 ovarian
CAKI-1 renal = system: CAKI-1 renal
UACC-257 melanoma = system: UACC-257 melanoma
ACHN renal = system: ACHN renal
SK-MEL-28 melanoma = system: SK-MEL-28 melanoma
MDA-MB-435 = system: MDA-MB-435
MCF7 breast = system: MCF7 breast
OVCAR-4 ovarian = system: OVCAR-4 ovarian
BT-549 breast = system: BT-549 breast
SNB-75 CNS = system: SNB-75 CNS
NCI-H460 lung = system: NCI-H460 lung
HCC-2998 colon = system: HCC-2998 colon
DU-145 prostate = system: DU-145 prostate

COc1cc(/C=N/Nc2ccnc3cc(Cl)ccc23)cc(OC)c1O
GI50 (A549 NSCLC): 1.74 µM | TGI (A549 NSCLC): 3.21 µM | GI50 (HL-60(TB) leukemia): 1.89 µM | TGI (HL-60(TB) leukemia): 3.86 µM | GI50 (SR leukemia): 1.9 µM | TGI (SR leukemia): 4.72 µM | GI50 (OVCAR-5 ovarian): 1.67 µM | TGI (OVCAR-5 ovarian): 3.08 µM | GI50 (NCI-H522 lung): 1.66 µM | TGI (NCI-H522 lung): 3.2 µM | GI50 (SW-620 colon): 1.69 µM | TGI (SW-620 colon): 3.66 µM | GI50 (LOX IMVI melanoma): 2.15 µM | TGI (LOX IMVI melanoma): 3.65 µM | GI50 (MOLT-4 leukemia): 2.36 µM | TGI (MOLT-4 leukemia): 5.71 µM | GI50 (NCI-H226 lung): 1.79 µM | TGI (NCI-H226 lung): 3.67 µM | GI50 (RXF 393 renal): 1.75 µM | TGI (RXF 393 renal): 3.31 µM | GI50 (UACC-62 melanoma): 1.71 µM | TGI (UACC-62 melanoma): 3.25 µM | GI50 (NCI/ADR-RES ovarian): 2.13 µM | TGI (NCI/ADR-RES ovarian): 4.51 µM | GI50 (K-562 leukemia): 1.63 µM | TGI (K-562 leukemia): 3.46 µM | GI50 (PC-3 prostate): 1.66 µM | TGI (PC-3 prostate): 3.18 µM | GI50 (HS 578T breast): 2.03 µM | TGI (HS 578T breast): 4.44 µM | GI50 (SF-539 CNS): 1.75 µM | TGI (SF-539 CNS): 3.16 µM | GI50 (COLO 205 colon): 1.86 µM | TGI (COLO 205 colon): 3.42 µM | GI50 (UO-31 renal): 1.69 µM | TGI (UO-31 renal): 3.12 µM | GI50 (RPMI-8226 leukemia): 2.18 µM | TGI (RPMI-8226 leukemia): 4.78 µM | GI50 (MALME-3M melanoma): 1.87 µM | TGI (MALME-3M melanoma): 3.44 µM | GI50 (TK-10 renal): 1.81 µM | TGI (TK-10 renal): 3.25 µM | GI50 (T-47D breast): 1.8 µM | TGI (T-47D breast): 3.9 µM | GI50 (SK-MEL-5 melanoma): 1.77 µM | TGI (SK-MEL-5 melanoma): 3.17 µM | GI50 (HCT-15 colon): 1.78 µM | TGI (HCT-15 colon): 3.43 µM | GI50 (SK-OV-3 ovarian): 1.72 µM | TGI (SK-OV-3 ovarian): 3.14 µM | GI50 (SK-MEL-2 melanoma): 16.3 µM | TGI (SK-MEL-2 melanoma): 32.8 µM | GI50 (U251 CNS): 1.81 µM | TGI (U251 CNS): 3.26 µM | GI50 (SN12C renal): 1.8 µM | TGI (SN12C renal): 3.56 µM | GI50 (KM12 colon): 2.39 µM | TGI (KM12 colon): 6.05 µM | GI50 (OVCAR-3 ovarian): 2.41 µM | TGI (OVCAR-3 ovarian): 5.47 µM | GI50 (HOP-62 NSCLC): 1.69 µM | TGI (HOP-62 NSCLC): 3.13 µM | GI50 (HT29 colon): 1.81 µM | TGI (HT29 colon): 3.34 µM | GI50 (A498 renal): 18.9 µM | TGI (A498 renal): 38.5 µM | GI50 (MDA-MB-231 breast): 2.05 µM | TGI (MDA-MB-231 breast): 4.05 µM | GI50 (M14 melanoma): 1.76 µM | TGI (M14 melanoma): 3.22 µM | GI50 (SF-295 CNS): 1.79 µM | TGI (SF-295 CNS): 3.32 µM | GI50 (HOP-92 NSCLC): 1.44 µM | TGI (HOP-92 NSCLC): 2.89 µM | GI50 (IGROV1 ovarian): 1.85 µM | TGI (IGROV1 ovarian): 3.63 µM | GI50 (CAKI-1 renal): 1.66 µM | TGI (CAKI-1 renal): 3.02 µM | GI50 (UACC-257 melanoma): 1.77 µM | TGI (UACC-257 melanoma): 3.3 µM | GI50 (ACHN renal): 1.83 µM | TGI (ACHN renal): 3.23 µM | GI50 (SK-MEL-28 melanoma): 1.79 µM | TGI (SK-MEL-28 melanoma): 3.21 µM | GI50 (MDA-MB-435): 1.69 µM | TGI (MDA-MB-435): 3.07 µM | GI50 (MCF7 breast): 1.58 µM | TGI (MCF7 breast): 3.37 µM | GI50 (OVCAR-4 ovarian): 1.85 µM | TGI (OVCAR-4 ovarian): 3.63 µM | GI50 (BT-549 breast): 1.75 µM | TGI (BT-549 breast): 3.27 µM | GI50 (SNB-75 CNS): 1.67 µM | TGI (SNB-75 CNS): 3.08 µM | GI50 (NCI-H460 lung): 2.05 µM | TGI (NCI-H460 lung): 3.73 µM | GI50 (HCC-2998 colon): 1.73 µM | TGI (HCC-2998 colon): 3.23 µM | GI50 (DU-145 prostate): 1.9 µM | TGI (DU-145 prostate): 3.61 µM
